Measured values reported in PMC2642990, “The Glycogen-Binding Domain on the AMPK β Subunit Allows the Kinase to Act as a Glycogen Sensor” (Cell Metabolism, 2009).

Target: T1, recombinant α1β1γ1 complex with β1 GBD mutations (W100G/W133A and others) (Rattus norvegicus, UniProt P80386, W100G/W133A)
T1 construct: we made mutations in full-length β1 coexpressed with α1 and γ1 in CCL13 cells; made in house; host or cells: human CCL13 cells, co-transfected; isolated by anti-myc immunoprecipitation
Assay: recombinant AMPK with GBD point mutations in β1, assayed in immunoprecipitates
Assay type: biochemical
Settings: 20 mM; Figure 5D
Description: To test whether mutations that interfered with the binding of glycogen to the GBD also affected inhibition of AMPK by glycogen, we made mutations in full-length β1 coexpressed with α1 and γ1 in CCL13 cells, isolated the complex by immunoprecipitation via the myc tag on α1, and assayed the kinase activity in the presence and absence of glycogen. The activities were adjusted to correct for slight variation in recovery of the α1 subunit assessed by blotting (inset in Figure 3A). […] Because all of these assays were conducted in resuspended immunoprecipitates, the degree of inhibition of the wild-type was < 50%, as discussed in the previous section. […]
Figure 3 Effect of β Subunit Mutations on Inhibition of Recombinant AMPK Complexes by Glycogen (A) Myc-α1, γ1, and β1 with the wild-type sequence or the indicated mutations were expressed in CCL13 cells, immunoprecipitated, and assayed ± bovine liver glycogen (200 mM glucose equivalents); results are mean ± SEM (n = 3). […] (C) Myc-α1, γ1, and β1 with the wild-type sequence or with W100G/W133A mutations were expressed in CCL13 cells, immunoprecipitated using anti-myc (left) or anti-FLAG (right) antibodies, and analyzed by western blotting using anti-myc antibodies (top panels) or a mixture of anti-β1 and -γ1 antibodies (bottom panels). […]

T1 sequence (P80386 2-270 W100G/W133A): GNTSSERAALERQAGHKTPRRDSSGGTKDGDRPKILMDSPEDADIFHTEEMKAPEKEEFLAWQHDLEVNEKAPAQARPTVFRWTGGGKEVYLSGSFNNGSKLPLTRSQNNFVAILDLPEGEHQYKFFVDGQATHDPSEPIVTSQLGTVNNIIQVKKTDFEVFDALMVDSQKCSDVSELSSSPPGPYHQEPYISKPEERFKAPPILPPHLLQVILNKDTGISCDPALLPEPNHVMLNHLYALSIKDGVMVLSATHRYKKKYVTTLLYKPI
T1 sequence (P54645 whole entry partner): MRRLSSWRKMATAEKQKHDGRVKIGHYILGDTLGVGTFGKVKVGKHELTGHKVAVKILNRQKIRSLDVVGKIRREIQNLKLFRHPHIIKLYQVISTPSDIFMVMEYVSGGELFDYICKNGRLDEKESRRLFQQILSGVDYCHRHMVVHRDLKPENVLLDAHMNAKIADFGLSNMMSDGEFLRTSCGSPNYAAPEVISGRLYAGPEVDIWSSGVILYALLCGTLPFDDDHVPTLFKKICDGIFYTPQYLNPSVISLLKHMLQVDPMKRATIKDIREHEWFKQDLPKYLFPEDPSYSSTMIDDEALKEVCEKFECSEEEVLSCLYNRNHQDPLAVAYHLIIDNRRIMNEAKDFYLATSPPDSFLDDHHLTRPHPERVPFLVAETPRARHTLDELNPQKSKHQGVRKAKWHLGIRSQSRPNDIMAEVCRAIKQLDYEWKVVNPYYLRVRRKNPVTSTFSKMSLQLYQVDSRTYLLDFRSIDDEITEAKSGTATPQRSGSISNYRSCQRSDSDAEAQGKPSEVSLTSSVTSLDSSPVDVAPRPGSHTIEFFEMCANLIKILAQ
T1 sequence (P80385 whole entry partner): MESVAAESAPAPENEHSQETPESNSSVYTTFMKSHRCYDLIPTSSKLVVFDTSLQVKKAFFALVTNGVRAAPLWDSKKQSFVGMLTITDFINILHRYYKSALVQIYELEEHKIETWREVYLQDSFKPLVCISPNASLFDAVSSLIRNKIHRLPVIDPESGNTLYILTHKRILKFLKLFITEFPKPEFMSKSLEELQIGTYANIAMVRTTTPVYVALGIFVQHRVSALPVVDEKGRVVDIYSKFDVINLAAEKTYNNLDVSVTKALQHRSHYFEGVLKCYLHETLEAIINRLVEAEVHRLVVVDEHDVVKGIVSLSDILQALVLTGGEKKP

SMILES: OC[C@H]1O[C@H](OC[C@H]2OC(O)[C@H](O)[C@@H](O)[C@@H]2O)[C@H](O)[C@@H](O)[C@@H]1O (stereo partly shown) [isomaltose]
- inhibition of W100G/W133A mutant: not
